{"source": "patent US9259491B2", "about": "“Class of diazepine derivative chelating agents and complexes with paramagnetic metals thereof as MRI contrast agents” (BRACCO IMAGING S.P.A., priority 2012, dated 2016)", "key": {"[1]": {"test": "Stability at 37° C. of diazepine complexes determined through r1p measurement in different media", "type": "physicochemical", "details": "0.47T, 25° C.", "method": "(§1) For all the compounds, longitudinal relaxation times (T1) at 20 MHz and at 25° C. on a mq20 Minispec instrument (Bruker Biospin, Germany) were measured in water, human serum albumin at physiological concentration and human plasma. Millimolar relaxivity r1p was thus determined from T1 measurements using the following equation: R^i1obs=1/T^i,J1obs=r^i,j1p·[Gd^3+]+1/T^j1 wherein R^i1obs is the observed relaxation […] of the selected contrast agent, T1obs is the observed longitudinal relaxation time of the solution and the indexes i and j relate to the contrast agent and to the medium respectively.\nIn its turn, this means that the present amphiphilic complexes can be administered and detected during MRI experiments allowing a clear and exhaustive analysis of the image over a suitable frame of time."}, "[2]": {"test": "Millimolar relaxivity r1p from T1 measurements in water, HSA 4% and human plasma (0.47T/20 MHz, 25° C.)", "type": "physicochemical", "method": "as §1"}}, "data": [{"smiles": "CCCCCCCCCCCC(=O)OC[C@H](COP(=O)(O)OCCNC(=O)CCCCC1(N(CC(=O)[O-])CC(=O)[O-])CN(CC(=O)[O-])CCN(CC(=O)[O-])C1)OC(=O)CCCCCCCCCCC.[Gd+3].[Na+]", "note": "[Compound 9b]", "values": [{"measurement": "r1p (stability at 37° C.)", "setting": "[1]; Human plasma, 1 h", "value": 30.9, "unit": "mM⁻¹ s⁻¹"}, {"measurement": "r1p (stability at 37° C.)", "setting": "[1]; Human plasma, 4 h", "value": 28.3, "unit": "mM⁻¹ s⁻¹"}, {"measurement": "r1p (stability at 37° C.)", "setting": "[1]; Human plasma, T0", "value": 32.5, "unit": "mM⁻¹ s⁻¹"}, {"measurement": "r1p (stability at 37° C.)", "setting": "[1]; Water, 1 h", "value": 15.9, "unit": "mM⁻¹ s⁻¹"}, {"measurement": "r1p (stability at 37° C.)", "setting": "[1]; Water, 4 h", "value": 15.5, "unit": "mM⁻¹ s⁻¹"}, {"measurement": "r1p (stability at 37° C.)", "setting": "[1]; Water, T0", "value": 16.7, "unit": "mM⁻¹ s⁻¹"}, {"measurement": "r1p", "setting": "[2]; HSA 4%", "value": 32.0, "unit": "mM⁻¹ s⁻¹"}, {"measurement": "r1p", "setting": "[2]; Human plasma", "value": 32.5, "unit": "mM⁻¹ s⁻¹"}, {"measurement": "r1p", "setting": "[2]; Water", "value": 16.7, "unit": "mM⁻¹ s⁻¹"}]}, {"smiles": "CCCCCCN(CCCCCC)C(=O)CCCCC1(N(CC(=O)[O-])CC(=O)[O-])CN(CC(=O)[O-])CCN(CC(=O)[O-])C1.[Gd+3].[Na+]", "note": "[Compound 12b, [[6-[Bis[(carboxy)methyl]amino]-6-[5-(dihexylamino)-5-oxopent-1-yl]-tetrahydro-1H-1,4-diazepine-1,4(5H)-diacetate(4-)]gadolinate(1-)]sodium]", "values": [{"measurement": "r1p", "setting": "[2]; HSA 4%", "value": 31.5, "unit": "mM⁻¹ s⁻¹"}, {"measurement": "r1p", "setting": "[2]; Human plasma", "value": 33.7, "unit": "mM⁻¹ s⁻¹"}, {"measurement": "r1p", "setting": "[2]; Water", "value": 13.0, "unit": "mM⁻¹ s⁻¹"}]}, {"smiles": "CCCCCCCCN(CCCCCCCC)C(=O)CCCCC1(N(CC(=O)[O-])CC(=O)[O-])CN(CC(=O)[O-])CCN(CC(=O)[O-])C1.[Gd+3].[Na+]", "note": "[Compound 12c, [[6-[Bis[(carboxy)methyl]amino]-6-[5-(dioctylamino)-5-oxopent-1-yl]-tetrahydro-1H-1,4-diazepine-1,4(5H)-diacetate(4-)]gadolinate(1-)]sodium]", "values": [{"measurement": "r1p", "setting": "[2]; HSA 4%", "value": 54.2, "unit": "mM⁻¹ s⁻¹"}, {"measurement": "r1p", "setting": "[2]; Human plasma", "value": 50.2, "unit": "mM⁻¹ s⁻¹"}, {"measurement": "r1p", "setting": "[2]; Water", "value": 13.3, "unit": "mM⁻¹ s⁻¹"}]}, {"smiles": "CCCCCCCCCCN(CCCCCCCCCC)C(=O)CCCCC1(N(CC(=O)[O-])CC(=O)[O-])CN(CC(=O)[O-])CCN(CC(=O)[O-])C1.[Gd+3].[Na+]", "note": "[Compound 12d, [[6-[Bis[(carboxy)methyl]amino]-6-[5-(didecylamino)-5-oxopent-1-yl]-tetrahydro-1H-1,4-diazepine-1,4(5H)-diacetate(4-)]gadolinate(1-)]sodium]", "values": [{"measurement": "r1p (stability at 37° C.)", "setting": "[1]; HSA 4%, 5 h", "value": 40.9, "unit": "mM⁻¹ s⁻¹"}, {"measurement": "r1p (stability at 37° C.)", "setting": "[1]; HSA 4%, T0", "value": 46.7, "unit": "mM⁻¹ s⁻¹"}, {"measurement": "r1p (stability at 37° C.)", "setting": "[1]; Human plasma, 2 h", "value": 39.2, "unit": "mM⁻¹ s⁻¹"}, {"measurement": "r1p (stability at 37° C.)", "setting": "[1]; Human plasma, 5 h", "value": 34.7, "unit": "mM⁻¹ s⁻¹"}, {"measurement": "r1p (stability at 37° C.)", "setting": "[1]; Human plasma, T0", "value": 45.2, "unit": "mM⁻¹ s⁻¹"}, {"measurement": "r1p (stability at 37° C.)", "setting": "[1]; Water, 2 h", "value": 20.4, "unit": "mM⁻¹ s⁻¹"}, {"measurement": "r1p (stability at 37° C.)", "setting": "[1]; Water, 5 h", "value": 15.8, "unit": "mM⁻¹ s⁻¹"}, {"measurement": "r1p (stability at 37° C.)", "setting": "[1]; Water, T0", "value": 23.5, "unit": "mM⁻¹ s⁻¹"}, {"measurement": "r1p", "setting": "[2]; HSA 4%", "value": 46.7, "unit": "mM⁻¹ s⁻¹"}, {"measurement": "r1p", "setting": "[2]; Human plasma", "value": 45.2, "unit": "mM⁻¹ s⁻¹"}, {"measurement": "r1p", "setting": "[2]; Water", "value": 23.5, "unit": "mM⁻¹ s⁻¹"}]}, {"smiles": "CCCCCCCCCCCCN(CCCCCCCCCCCC)C(=O)CCCCC1(N(CC(=O)[O-])CC(=O)[O-])CN(CC(=O)[O-])CCN(CC(=O)[O-])C1.[Gd+3].[Na+]", "note": "[Compound 12e, [[6-[Bis[(carboxy)methyl]amino]-6-[5-(didodecylamino)-5-oxopent-1-yl]-tetrahydro-1H-1,4-diazepine-1,4(5H)-diacetate(4-)]gadolinate(1-)]sodium]", "values": [{"measurement": "r1p (stability at 37° C.)", "setting": "[1]; Human plasma, 2 h", "value": 35.2, "unit": "mM⁻¹ s⁻¹"}, {"measurement": "r1p (stability at 37° C.)", "setting": "[1]; Human plasma, 4 h", "value": 32.3, "unit": "mM⁻¹ s⁻¹"}, {"measurement": "r1p (stability at 37° C.)", "setting": "[1]; Human plasma, T0", "value": 36.2, "unit": "mM⁻¹ s⁻¹"}, {"measurement": "r1p (stability at 37° C.)", "setting": "[1]; Water, 2 h", "value": 31.3, "unit": "mM⁻¹ s⁻¹"}, {"measurement": "r1p (stability at 37° C.)", "setting": "[1]; Water, 4 h", "value": 30.4, "unit": "mM⁻¹ s⁻¹"}, {"measurement": "r1p (stability at 37° C.)", "setting": "[1]; Water, T0", "value": 33.4, "unit": "mM⁻¹ s⁻¹"}, {"measurement": "r1p", "setting": "[2]; HSA 4%", "value": 40.4, "unit": "mM⁻¹ s⁻¹"}, {"measurement": "r1p", "setting": "[2]; Human plasma", "value": 36.2, "unit": "mM⁻¹ s⁻¹"}, {"measurement": "r1p", "setting": "[2]; Water", "value": 33.4, "unit": "mM⁻¹ s⁻¹"}]}, {"smiles": "CCCCCCCCCCN(CCCCCCCCCC)C(=O)C1CCC(C2(N(CC(=O)[O-])CC(=O)[O-])CN(CC(=O)[O-])CCN(CC(=O)[O-])C2)CC1.[Gd+3].[Na+]", "note": "[Compound 25a, [[6-[Bis(carboxymethyl)amino]-6-[(1R,4R)-4-[(didecylamino)-carbonyl]-cyclohexane-1-yl]tetrahydro-1H-1,4-diazepine-1,4(5H)diacetate(4-)]gadolinate(1-)]sodium]", "values": [{"measurement": "r1p (stability at 37° C.)", "setting": "[1]; HSA 4%, 5 h", "value": 40.4, "unit": "mM⁻¹ s⁻¹"}, {"measurement": "r1p (stability at 37° C.)", "setting": "[1]; HSA 4%, T0", "value": 45.8, "unit": "mM⁻¹ s⁻¹"}, {"measurement": "r1p (stability at 37° C.)", "setting": "[1]; Water, 5 h", "value": 23.4, "unit": "mM⁻¹ s⁻¹"}, {"measurement": "r1p (stability at 37° C.)", "setting": "[1]; Water, T0", "value": 23.9, "unit": "mM⁻¹ s⁻¹"}, {"measurement": "r1p", "setting": "[2]; HSA 4%", "value": 45.8, "unit": "mM⁻¹ s⁻¹"}, {"measurement": "r1p", "setting": "[2]; Human plasma", "value": 41.1, "unit": "mM⁻¹ s⁻¹"}, {"measurement": "r1p", "setting": "[2]; Water", "value": 23.9, "unit": "mM⁻¹ s⁻¹"}]}, {"smiles": "CCCCCCCCN(CCCCCCCC)C(=O)C1CCC(C2(N(CC(=O)[O-])CC(=O)[O-])CN(CC(=O)[O-])CCN(CC(=O)[O-])C2)CC1.[Gd+3].[Na+]", "note": "[Compound 25b, [6-[Bis(carboxymethyl)amino]-6-[(1R,4R)-4-[(dioctylamino)-carbonyl]-cyclohexane-1-yl]tetrahydro-1H-1,4-diazepine-1,4(5H)diacetate(4-)]gadolinate(1-)]sodium]", "values": [{"measurement": "r1p", "setting": "[2]; HSA 4%", "value": 41.0, "unit": "mM⁻¹ s⁻¹"}, {"measurement": "r1p", "setting": "[2]; Human plasma", "value": 39.1, "unit": "mM⁻¹ s⁻¹"}, {"measurement": "r1p", "setting": "[2]; Water", "value": 14.6, "unit": "mM⁻¹ s⁻¹"}]}, {"smiles": "CCCCCCCCCC(=O)OC[C@H](COP(=O)([O-])OCCNC(=O)C1CCC(C2(N(CC(=O)[O-])CC(=O)[O-])CN(CC(=O)[O-])CCN(CC(=O)[O-])C2)CC1)OC(=O)CCCCCCCCC.[Gd+3].[Na+].[Na+]", "note": "(stereo partly drawn) [Compound 25c, [6-[-[Bis(carboxymethyl)amino]-6-[(1R,4R)-4-[[[(7R)-4-hydroxy-4-oxido-10-oxo-7-[(1-oxodecyl)oxy]-3,5,9-trioxa-4-phosphanonadec-1-yl]amino]-carbonyl]-cyclohexane-1-yl]tetrahydro-1H-1,4-diazepine-1,4(5H)-diacetate(5)]gadolinate(2-)]disodium]", "values": [{"measurement": "r1p", "setting": "[2]; HSA 4%", "value": 40.2, "unit": "mM⁻¹ s⁻¹"}, {"measurement": "r1p", "setting": "[2]; Human plasma", "value": 43.0, "unit": "mM⁻¹ s⁻¹"}, {"measurement": "r1p", "setting": "[2]; Water", "value": 14.7, "unit": "mM⁻¹ s⁻¹"}]}, {"smiles": "C[NH2+]C[C@H](O)[C@@H](O)[C@H](O)[C@H](O)CO.C[NH2+]C[C@H](O)[C@@H](O)[C@H](O)[C@H](O)CO.O=C([O-])CN(CCN(CC(=O)[O-])CC(=O)[O-])CCN(CC(=O)[O-])C(COCc1ccccc1)C(=O)[O-].[Gd+3]", "note": "(stereo not drawn) [Gd-BOPTA, [[4-(carboxy)-5,8,11-tris(carboxymethyl)-1-phenyl-2-oxa-5,8,11-triazatridecan-13-oato(5-)]gadolinate(2-)]dimeglumine, reference compound]", "values": [{"measurement": "r1p", "setting": "[2]; HSA 4%", "value": 8.9, "unit": "mM⁻¹ s⁻¹"}, {"measurement": "r1p", "setting": "[2]; Human plasma", "value": 8.7, "unit": "mM⁻¹ s⁻¹"}, {"measurement": "r1p", "setting": "[2]; Water", "value": 4.6, "unit": "mM⁻¹ s⁻¹"}]}, {"smiles": "O=C([O-])CN1CCN(CC(=O)[O-])CCN([C@H](CO)[C@H](O)CO)CCN(CC(=O)[O-])CC1.[Gd+3]", "note": "[Gd-BT-DO3A, reference compound]", "values": [{"measurement": "r1p", "setting": "[2]; HSA 4%", "value": 4.31, "unit": "mM⁻¹ s⁻¹"}, {"measurement": "r1p", "setting": "[2]; Human plasma", "value": 5.76, "unit": "mM⁻¹ s⁻¹"}, {"measurement": "r1p", "setting": "[2]; Water", "value": 3.75, "unit": "mM⁻¹ s⁻¹"}]}, {"smiles": "C[NH2+]C[C@H](O)[C@@H](O)[C@H](O)[C@H](O)CO.O=C([O-])CN1CCN(CC(=O)[O-])CCN(CC(=O)[O-])CCN(CC(=O)[O-])CC1.[Gd+3]", "note": "[Gd-DOTA, [[1,4,7,10-tetraazacyclododecane-1,4,7,10-tetraacetato(4-)]gadolinate(1-)] meglumine, reference compound]", "values": [{"measurement": "r1p", "setting": "[2]; HSA 4%", "value": 4.11, "unit": "mM⁻¹ s⁻¹"}, {"measurement": "r1p", "setting": "[2]; Human plasma", "value": 4.51, "unit": "mM⁻¹ s⁻¹"}, {"measurement": "r1p", "setting": "[2]; Water", "value": 3.61, "unit": "mM⁻¹ s⁻¹"}]}, {"smiles": "CC(O)CN1CCN(CC(=O)[O-])CCN(CC(=O)[O-])CCN(CC(=O)[O-])CC1.[Gd+3]", "note": "(stereo not drawn) [Gd-HP-DO3A, [10-(2-hydroxyprop-1-yl)-1,4,7,10-tetraazacyclododecane-1,4,7-triacetato(3-)]gadolinium, reference compound]", "values": [{"measurement": "r1p", "setting": "[2]; HSA 4%", "value": 3.85, "unit": "mM⁻¹ s⁻¹"}, {"measurement": "r1p", "setting": "[2]; Human plasma", "value": 4.80, "unit": "mM⁻¹ s⁻¹"}, {"measurement": "r1p", "setting": "[2]; Water", "value": 3.32, "unit": "mM⁻¹ s⁻¹"}]}]}
